Several values for one entry are separate records, joined by “and”; a condition that tells them apart may be missing. Identical values can stand only once.
Experiments:
[1] = system: S. Typhimurium SL1344 (sifB::gfp) in RAW 264.7 macrophages; assay: SAFIRE macrophage assay: intracellular bacterial load (GFP signal within macrophages); assay type: cell-based, Salmonella enterica serotype Typhimurium; details: 'Toxic' given instead of a score
Text: (§1) In SAFIRE, we used MATLAB software to count the number of macrophages that remain adherent and retain the red fluorescence of MitoTracker, an indicator of voltage across the mitochondrial inner membrane. MATLAB then calculates the signal from bacteria (green fluorescent protein [GFP]) that overlaps with macrophages, as defined by MitoTracker, to estimate bacterial load. […] For example, we observed that the 6-trifluoropyrimidin-2-yl group on the right-hand side of EPM35 is apparently toxic to macrophages. Non-toxic analogs that reduced bacterial load by at least 60% at 5 µM and 25 µM in SAFIRE, as compared with DMSO, progressed and were evaluated in SAFIRE across eight or more concentrations, ranging from 0.001 µM to 50 µM (n = 2). […] Each of the top 13 analogs had at least an eightfold increase in potency and were not toxic for macrophages at 50 µM in the SAFIRE assay (Fig. 1C).
(§2) As previously described ([18]), RAW 264.7 macrophages (between passages 1 and 6) were grown in complete Dulbecco’s modified Eagle’s medium (DMEM) to approximately 70% to 90% confluence, scraped, washed, resuspended, diluted to 5 × 10^4 in 100 µL, and seeded in black, 96-well, glass-bottomed plates (Brooks Life Sciences catalog number MGB096-1-2-LG-L) at 37°C with 5% CO2. Twenty-four hours later, bacteria grown overnight in LB were diluted into 50 µL phosphate buffered saline (PBS) and added to a final concentration of 1 × 10^7 S. Typhimurium SL1344 (sifB::gfp) per milliliter ([78]) for an approximate multiplicity of infection of 30 bacteria per macrophage cell. Forty-five minutes after bacterial addition, gentamicin (Sigma catalog number G1264) was added to a final concentration of 40 µg/mL to inhibit the growth of remaining extracellular bacteria. Two hours after infection, gentamicin-containing medium was removed and replaced with 200 µL fresh DMEM with compound or DMSO (Sigma catalog number 276855) to the stated final concentrations. At 17.5 h after infection, PBS containing MitoTracker Red CMXRos (Life Technologies catalog number M7512), a vital dye for mitochondrial electric potential, was added to a final concentration of 100 nM. At 18 h after infection, 16% paraformaldehyde was added to a final concentration of 4% and incubated at room temperature for 15 min. Cells were washed twice with PBS and stained for 20 min with 1 µM 4′,6-diamidino-2-phenylindole (DAPI), a vital dye for double-stranded DNA, and stored in 90% glycerol in PBS until imaging. Samples were imaged in six fields of view per well using a semiautomated Yokogawa CellVoyager CV1000 confocal scanner system with a 20×, 0.75-numerical aperture (NA) objective. A MATLAB algorithm calculated bacterial accumulation (GFP fluorescence) within macrophages, as defined by DAPI and MitoTracker Red. GFP^+ macrophage area was defined as the number of GFP-positive pixels per macrophage divided by the total number of pixels per macrophage, averaged across all macrophages in the field ([34]).

RAW 264.7 macrophages = assay: SAFIRE macrophage assay: host toxicity (adherent macrophage count, morphology); assay type: cell-based
Text: as §1, §2

Row | Compound | 5 uM Avg Antibacterial Score [1] | 25 uM Avg Antibacterial Score [1] | 5 uM Avg Cell # Score (RAW 264.7 macrophages) | 25 uM Avg Cell # Score (RAW 264.7 macrophages)
1 | OC(COc1ccc(Cl)c(Cl)c1)CN1CCOC2(CCOCC2)C1 (centres unmarked) [CU027] | 107 | 95 | 58 | 104
2 | OC(COc1ccc(Cl)c(Cl)c1)CN1CCC(NC2CC2)C1 (centres unmarked) [CU028] | 88 | 41 | 85 | 134
3 | OC(COc1ccc(Cl)c(Cl)c1)CN1CCC(N2CCOCC2)C1 (centres unmarked) [CU029] | 105 | 63 | 75 | 146
4 | OC(COc1ccc(Cl)c(Cl)c1)CN1CCCC(N2CCOCC2)C1 (centres unmarked) [CU030] | 102 | 45 | 57 | 126
5 | CC(C)(C)OC(=O)NC1CCN(CC(O)COc2ccc(Cl)c(Cl)c2)C1 (centres unmarked) [CU031] | 102 | Toxic | 88 | 140
6 | CC(=O)NC1CCN(CC(O)COc2ccc(Cl)c(Cl)c2)C1 (centres unmarked) [CU033] | 106 | 72 | 79 | 110
7 | OC(COc1ccccc1)CN1CCC(Nc2nccc(C(F)(F)F)n2)CC1 (centres unmarked) [CU034] | 99 | Toxic | 86 | 57
8 | COc1ccc(OCC(O)CN2CCC(Nc3nccc(C(F)(F)F)n3)CC2)cc1 (centres unmarked) [CU036] | 102 | 24 | 54 | 120
9 | OC(COc1ccc(F)cc1)CN1CCC(Nc2nccc(C(F)(F)F)n2)CC1 (centres unmarked) [CU037] | 106 | 23 | 74 | 117
10 | OC(COc1ccc(Cl)cc1Cl)CN1CCC(Nc2nccc(C(F)(F)F)n2)CC1 (centres unmarked) [CU038] | 95 | Toxic | 85 | 181
11 | OC(COc1ccc(F)cc1F)CN1CCC(Nc2nccc(C(F)(F)F)n2)CC1 (centres unmarked) [CU039] | 107 | 13 | 90 | 145
12 | OC(COc1ccccc1Cl)CN1CCC(Nc2nccc(C(F)(F)F)n2)CC1 (centres unmarked) [CU040] | 109 | 19 | 84 | 114
13 | N#Cc1ccc(OCC(O)CN2CCC(Nc3nccc(C(F)(F)F)n3)CC2)cc1 (centres unmarked) [CU041] | 106 | 23 | 85 | 78
14 | OC(COc1ccc(Cl)c(Cl)c1)CN1CCC(Nc2ncccn2)CC1 (centres unmarked) [CU042] | 105 | 23 | 77 | 90
15 | OC(COc1ccccc1)CN1CCC(Nc2ncccn2)CC1 (centres unmarked) [CU043] | 106 | 81 | 69 | 107
16 | OC(COc1ccc(Cl)cc1)CN1CCC(Nc2ncccn2)CC1 (centres unmarked) [CU044] | 91 | 36 | 84 | 100
17 | OC(COc1ccc(F)cc1)CN1CCC(Nc2ncccn2)CC1 (centres unmarked) [CU045] | 101 | 99 | 86 | 109
18 | COc1ccc(OCC(O)CN2CCC(Nc3ncccn3)CC2)cc1 (centres unmarked) [CU046] | 103 | 75 | 74 | 173
19 | OC(COc1ccc(Cl)cc1Cl)CN1CCC(Nc2ncccn2)CC1 (centres unmarked) [CU047] | 107 | 26 | 72 | 141

Row | Compound | 5 uM Avg Antibacterial Score [1] | 25 uM Avg Antibacterial Score [1] | 5 uM Avg Cell # Score (RAW 264.7 macrophages) | 25 uM Avg Cell # Score (RAW 264.7 macrophages)
20 | OC(COc1ccc(F)cc1F)CN1CCC(Nc2ncccn2)CC1 (centres unmarked) [CU048] | 105 | 95 | 85 | 159
21 | OC(COc1ccccc1Cl)CN1CCC(Nc2ncccn2)CC1 (centres unmarked) [CU049] | 104 | 61 | 84 | 121
22 | N#Cc1ccc(OCC(O)CN2CCC(Nc3ncccn3)CC2)cc1 (centres unmarked) [CU050] | 101 | 95 | 102 | 113
23 | OC(COc1ccc(Cl)c(Cl)c1)CN1CCC(Nc2nccs2)CC1 (centres unmarked) [CU051] | 58 | 45 | 123 | 105
24 | OC(COc1ccccc1)CN1CCC(Nc2nccs2)CC1 (centres unmarked) [CU052] | 106 | 93 | 110 | 165
25 | OC(COc1ccc(Cl)cc1)CN1CCC(Nc2nccs2)CC1 (centres unmarked) [CU053] | 101 | 42 | 127 | 140
26 | COc1ccc(OCC(O)CN2CCC(Nc3nccs3)CC2)cc1 (centres unmarked) [CU054] | 91 | 74 | 98 | 96
27 | OC(COc1ccc(Cl)c(Cl)c1)CN1CCCN(c2nccc(C(F)(F)F)n2)CC1 (centres unmarked) [CU055] | Toxic | Toxic | 77 | 99
28 | CNC(=O)C1CCN(CC(O)COc2ccc(Cl)c(Cl)c2)CC1 (centres unmarked) [CU057] | 101 | 93 | 85 | 89
29 | CN(C)C(=O)C1CCN(CC(O)COc2ccc(Cl)c(Cl)c2)CC1 (centres unmarked) [CU058] | 104 | 72 | 85 | 81
30 | CCN(CC)C(=O)C1CCN(CC(O)COc2ccc(Cl)c(Cl)c2)CC1 (centres unmarked) [CU059] | 97 | 46 | 105 | 88
31 | O=C1CCCN1C1CCN(CC(O)COc2ccc(Cl)c(Cl)c2)CC1 (centres unmarked) [CU060] | 98 | 83 | 100 | 99
32 | OC(COc1ccc(Cl)c(Cl)c1)CN1CCN(c2nccc(C(F)(F)F)n2)CC1 (centres unmarked) [CU061] | Toxic | Toxic | 74 | 101
33 | O=C(C1CCN(CC(O)COc2ccc(Cl)c(Cl)c2)CC1)N1CCCC1 (centres unmarked) [CU062] | 95 | 48 | 103 | 145
34 | CC(=O)NC1CCN(CC(O)COc2ccc(Cl)c(Cl)c2)CC1 (centres unmarked) [CU063] | 102 | 78 | 107 | 119
35 | CC(=O)N(C)C1CCN(CC(O)COc2ccc(Cl)c(Cl)c2)CC1 (centres unmarked) [CU064] | 106 | 90 | 86 | 82
36 | NC(=O)C1CCN(CC(O)COc2ccc(Cl)c(Cl)c2)C1 (centres unmarked) [CU065] | 106 | 90 | 80 | 87
37 | NC1CN(CC(O)COc2ccc(Cl)c(Cl)c2)C1 (centres unmarked) [CU150] | – | – | 112 and 118 | 112 and 143

Source: article PMC10746280, “Bacterial efflux pump modulators prevent bacterial growth in macrophages and under broth conditions that mimic the host environment” (mBio, 2023)
